In patent publication US12637473B2, “MDM2 protein degraders” (THE REGENTS OF THE UNIVERSITY OF MICHIGAN, priority 2016, dated 2026):

Columns and labels:
Format in all cases: cell-based
MV4-11 cell line = assay: CellTiter-Glo Luminescent Cell Viability Assay, cell growth inhibition; details: Homo sapiens, 96 h, 4 days
Outline: (§1)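 Cells plated at 2,000/well with serially diluted compounds, incubated 4 days at 37° C, 5% CO2. Viability read by CellTiter-Glo luminescence after 10-20 min at room temperature; IC50 from dose-response fit.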

RS4; 11 cell line = assay: as above; details: Homo sapiens, 96 h, 4 days
Outline: as §1

[1] = test system: p53 target genes: p21, PUMA and BAX; assay: Activation of p53 downstream target genes, quantitative real-time PCR; details: RS4; 11 cells; 0.3 μM; 3, 6, or 12 hours
Procedure: RS4; 11 cells were treated with Cpd. A (0.3 μM), Cpd. No. 15 (10 nM), and Cpd. No. 22 (10 nM) for 3, 6, or 12 hours, and then harvested and washed. Cellular mRNA samples were extracted from the cells and then subjected to Reverse Transcription and quantitative real-time PCR for the analysis of the mRNA levels of three representative p53 target genes: p21, that induces cell cycle arrest, and PUMA and BAX that leads to apoptosis. […] A, Cpd. No. 15, and Cpd. No. 22.

RS4; 11 cells = assay: Cell growth inhibition by WST assay with Cpd. C co-treatment (CRBN competition); design: LogIC50: unit not given here; details: for HillSlope / IC50 / LogIC50: 4 days
Procedure: RS4; 11 cells were pre-incubated with different concentrations of Cpd. C to compete for the binding of phthalimide to CRBN, or DMSO, for 2 hours before adding Cpd. A, Cpd. No. 14, Cpd. No. 15, and Cpd. No. 22. The cells were then co-treated with 10, 20, or 30 μM Cpd. C and increasing concentrations of Cpd. A, Cpd. No. 14, Cpd. No. 15, and Cpd. No. 22 for 4 days, with a starting cell concentration of ˜15,000/well. Cell growth inhibition was determined by the WST assay. […] No. 14, Cpd. No. 15, and Cpd. No. 22 with co-treatment of Cpd. C. The structure of Cpd.

[2] = test system: RS4; 11 cells with stable shRNA knockdown of p53; assay: Cell growth inhibition by WST assay, p53 knockdown cells; design: LogIC50: unit not given here; details: RS4;11 sh p53, 4 days; for IC50: Homo sapiens, 96 h
Procedure: (§2) RS4; 11 cells with stable shRNA knockdown of p53 or those transfected shRNA control vector were treated with Cpd. A, Cpd. B, Cpd. No. 14, Cpd. No. 21, Cpd. No. 15, and Cpd. No. 22 for 4 days, with a cell concentration of ˜15,000/well. Cell growth inhibition was determined by WST assay. See Table 7 (p53) and Table 8 (control). Significant increases in IC50 of the Compounds of the Disclosure in the p53 knockdown RS4; 11 cells were observed compared with that in the sh control cells. […] The p53 knockdown efficiency was determined by western blot for p53 protein levels with or without treatment of Cpd. A (1 μM) for 2 hours.

[3] = test system: RS4; 11 cells transfected shRNA control vector; assay: Cell growth inhibition by WST assay, shRNA control cells; design: LogIC50: unit not given here; details: RS4;11 sh Control, 4 days; for IC50: Homo sapiens, 96 h
Procedure: as §2

MDM2 [4] = target: T1, MDM2 (Homo sapiens, UniProt Q00987); assay: MDM2 degradation with or without proteasome inhibitor MG-132, western blotting; design: endogenous in cells; host or cells: RS4;11; details: FIG. 6
Procedure: RS4; 11 cells were pre-incubated with the proteasome inhibitor MG-132 (20 μM) or without any pre-incubation for 2 hours. Next, the cells were treated with Cpd. A (0.3 μM), Cpd. No. 14 (0.03 μM), Cpd. No. 15 (0.01 μM), and Cpd. No. 22 (0.01 μM) for 2 hours, then harvested and lysed. The cell lysates were subject to western blotting analysis.

MDM2 [5] = target: T1, MDM2; assay: MDM2 degradation and p53 activation after pre-incubation with Cpd. C, Western blot; design: endogenous in cells; host or cells: RS4;11
Procedure: RS4; 11 cells were pre-incubated with 30 μM Cpd. C to compete for the binding of phthalimide to CRBN, or DMSO, for 2 hours before adding Cpd. A, Cpd. No. 14, Cpd. No. 15, and Cpd. No. 22. In the Western blot RS4; 11 cells were then co-treated with the indicated compounds at the indicated concentrations after pre-incubation. […] No. 14, Cpd. No. 15, and Cpd.

[6] = Homo sapiens, 96 h, without Cpd. C
[7] = RS4, 11 cells, pre-incubated with 30 μM Cpd. C for 2 hours

T1 sequence (Q00987 whole entry): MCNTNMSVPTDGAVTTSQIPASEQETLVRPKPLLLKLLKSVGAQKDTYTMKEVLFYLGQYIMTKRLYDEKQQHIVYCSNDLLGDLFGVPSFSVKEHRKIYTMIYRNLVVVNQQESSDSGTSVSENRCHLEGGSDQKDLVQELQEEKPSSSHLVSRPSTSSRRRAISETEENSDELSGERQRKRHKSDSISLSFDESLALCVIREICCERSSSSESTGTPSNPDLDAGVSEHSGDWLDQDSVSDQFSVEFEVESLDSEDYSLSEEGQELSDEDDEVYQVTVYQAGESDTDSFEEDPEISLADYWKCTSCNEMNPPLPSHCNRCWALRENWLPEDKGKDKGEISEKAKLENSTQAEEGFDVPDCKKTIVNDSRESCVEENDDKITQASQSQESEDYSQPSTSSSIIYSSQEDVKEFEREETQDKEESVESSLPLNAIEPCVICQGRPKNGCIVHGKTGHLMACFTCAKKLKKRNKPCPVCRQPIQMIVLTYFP

Compound: O=C(O)c1ccc(NC(=O)[C@@H]2NC3(CCCCC3)[C@@]3(C(=O)Nc4cc(Cl)ccc43)[C@H]2c2cccc(Cl)c2F)cc1 [Cpd. A, reference compound]
- IC50 (MV4-11 cell line): 100 nM
- IC50 (RS4; 11 cell line): 86 nM
- activation of p53 downstream target genes (mRNA levels of p21, PUMA, BAX) [1]: Significant activation
- HillSlope (RS4; 11 cells; + 10 uM Cpd. C): −1.569
- IC50 (RS4; 11 cells; + 10 uM Cpd. C): 48.1 nM
- LogIC50 (RS4; 11 cells; + 10 uM Cpd. C): −1.317
- HillSlope (RS4; 11 cells; + 20 uM Cpd. C): −1.406
- IC50 (RS4; 11 cells; + 20 uM Cpd. C): 39 nM
- LogIC50 (RS4; 11 cells; + 20 uM Cpd. C): −1.409
- HillSlope (RS4; 11 cells; + 30 uM Cpd. C): −1.411
- IC50 (RS4; 11 cells; + 30 uM Cpd. C): 36.5 nM
- LogIC50 (RS4; 11 cells; + 30 uM Cpd. C): −1.438
- HillSlope (RS4; 11 cells; without Cpd. C): −1.496
- LogIC50 (RS4; 11 cells; without Cpd. C): −1.030
- IC50 (RS4; 11 cells; [6]): 93.3 nM
- IC50 [2]: 9830 nM
- HiliSlope [2]: −0.4240
- LogIC50 [2]: 0.9926
- IC50 [3]: 97.5 nM
- HiliSlope [3]: −1.155
- LogIC50 [3]: −1.011

Compound: COCCONC(=O)c1ccc(NC(=O)[C@@H]2NC3(CCCCC3)[C@@]3(C(=O)Nc4cc(Cl)ccc43)[C@H]2c2cccc(Cl)c2F)cc1 [Cpd. B, reference compound]
- IC50 [2]: 5670 nM
- HiliSlope [2]: −0.7973
- LogIC50 [2]: 0.7537
- IC50 [3]: 85.3 nM
- HiliSlope [3]: −0.9620
- LogIC50 [3]: −1.069

Compound: O=C1CCC(N2C(=O)c3cccc(NCCOCCOCCNC(=O)c4ccc(NC(=O)[C@@H]5NC6(CCCCC6)[C@@]6(C(=O)Nc7cc(Cl)ccc76)[C@H]5c5cccc(Cl)c5F)cc4)c3C2=O)C(=O)N1 (stereo partly drawn) [Cpd. No. 14, (3′R,4'S,5′R)-6″-chloro-4′-(3-chloro-2-fluorophenyl)-N-(4-((2-(2-(2-((2-(2,6-dioxopiperidin-3-yl)-1,3-dioxoisoindolin-4-yl)amino)ethoxy)ethoxy)ethyl)carbamoyl)phenyl)-2″-oxodispiro[cyclohexane-1,2′-pyrrolidine-3′,3″-indoline]-5′-carboxamide]
- IC50 (MV4-11 cell line): 7.6 nM
- IC50 (RS4; 11 cell line): 8.5 nM
- HillSlope (RS4; 11 cells; + 10 uM Cpd. C): −1.705
- IC50 (RS4; 11 cells; + 10 uM Cpd. C): 57 nM
- LogIC50 (RS4; 11 cells; + 10 uM Cpd. C): −1.244
- HillSlope (RS4; 11 cells; + 20 uM Cpd. C): −1.667
- IC50 (RS4; 11 cells; + 20 uM Cpd. C): 81.1 nM
- LogIC50 (RS4; 11 cells; + 20 uM Cpd. C): −1.091
- HillSlope (RS4; 11 cells; + 30 uM Cpd. C): −1.600
- IC50 (RS4; 11 cells; + 30 uM Cpd. C): 77.4 nM
- LogIC50 (RS4; 11 cells; + 30 uM Cpd. C): −1.111
- HillSlope (RS4; 11 cells; without Cpd. C): −1.996
- LogIC50 (RS4; 11 cells; without Cpd. C): −2.147
- IC50 (RS4; 11 cells; [6]): 7.13 nM
- shift of the dose response curves (RS4; 11 cells; co-treatment of Cpd. C (10, 20, or 30 μM)): Significant rightward shifts
- IC50 [2]: 501 nM
- HiliSlope [2]: −0.4731
- LogIC50 [2]: −0.3000
- IC50 [3]: 9.67 nM
- HiliSlope [3]: −1.475
- LogIC50 [3]: −2.014
- MDM2 degradation, dependence on proteasome (MDM2 [4]): proteasome-dependent
- MDM2 degradation, dependence on cereblon (CRBN) (MDM2 [5]; FIG. 7): cereblon (CRBN)-dependent
- MDM2 degradation, competition by Cpd. C (MDM2 [5]; [7]): significantly competed by Cpd. C
- p53 activation, competition by Cpd. C (MDM2 [5]; [7]): significantly competed by Cpd. C

Compound: O=C1CCC(N2Cc3c(NCCOCCOCCNC(=O)c4ccc(NC(=O)[C@@H]5NC6(CCCCC6)[C@@]6(C(=O)Nc7cc(Cl)ccc76)[C@H]5c5cccc(Cl)c5F)cc4)cccc3C2=O)C(=O)N1 (stereo partly drawn) [Cpd. No. 21, (3′R,4'S,5′R)-6″-chloro-4′-(3-chloro-2-fluorophenyl)-N-(4-((2-(2-(2-((2-(2,6-dioxopiperidin-3-yl)-1-oxoisoindolin-4-yl)amino)ethoxy)ethoxy)ethyl)carbamoyl)phenyl)-2″-oxodispiro[cyclohexane-1,2′-pyrrolidine-3′,3″-indoline]-5′-carboxamide]
- IC50 (MV4-11 cell line): 2 nM
- IC50 (RS4; 11 cell line): 4.4 nM
- IC50 [2]: 4160 nM
- HiliSlope [2]: −0.4410
- LogIC50 [2]: 0.6196
- IC50 [3]: 13.1 nM
- HiliSlope [3]: −1.448
- LogIC50 [3]: −1.882

Compound: CCN1[C@@H](C(=O)NC23CCC(C(=O)NCCCOCCOCCOCCCNC(=O)COc4cccc5c4C(=O)N(C4CCC(=O)NC4=O)C5=O)(CC2)CC3)[C@H](c2cccc(Cl)c2F)[C@]2(C(=O)Nc3cc(Cl)ccc32)C12CCCCC2 (stereo partly drawn) [Cpd. No. 46, (3′R,4'S,5′R)-6″-chloro-4′-(3-chloro-2-fluorophenyl)-N-(4-((1-((2-(2,6-dioxopiperidin-3-yl)-1,3-dioxoisoindolin-4-yl)oxy)-2-oxo-7,10,13-trioxa-3-azahexadecan-16-yl)carbamoyl)bicyclo[2.2.2]octan-1-yl)-1′-ethyl-2″-oxodispiro[cyclohexane-1,2′-pyrrolidine-3′,3″-indoline]-5′-carboxamide]
- IC50 (MV4-11 cell line): 20 nM
- IC50 (RS4; 11 cell line): 20 nM

Compound: CCN1[C@@H](C(=O)NC23CCC(C(=O)NCCOCCOCCOCCOCC(=O)N[C@H](C(=O)N4C[C@H](O)C[C@H]4C(=O)NCc4ccc(-c5scnc5C)cc4)C(C)(C)C)(CC2)CC3)[C@H](c2cccc(Cl)c2F)[C@]2(C(=O)Nc3cc(Cl)ccc32)C12CCCCC2 [Cpd. No. 48, (3′R,4'S,5′R)-6″-chloro-4′-(3-chloro-2-fluorophenyl)-1′-ethyl-N-(4-(((S)-16-((2S,4R)-4-hydroxy-2-((4-(4-methylthiazol-5-yl)benzyl)carbamoyl)pyrrolidine-1-carbonyl)-17,17-dimethyl-14-oxo-3,6,9,12-tetraoxa-15-azaoctadecyl)carbamoyl)bicyclo[2.2.2]octan-1-yl)-2″-oxodispiro[cyclohexane-1,2′-pyrrolidine-3′,3″-indoline]-5′-carboxamide]
- IC50 (MV4-11 cell line): 130 nM
- IC50 (RS4; 11 cell line): 190 nM
